PMC2287205 (Analytical and Bioanalytical Chemistry, 2008)

Legend:
[1] = molecular target: ERα (Homo sapiens, UniProt P03372); type: binding; conditions: mixture of five estrogenic compounds separated by gradient HPLC (Fig. 7)
[2] = Microsomal incubation with PB-induced rat liver microsomes; conditions: 100 μM zearalenone, 120 min, 37 °C

ERα, sequence (P03372 311-547): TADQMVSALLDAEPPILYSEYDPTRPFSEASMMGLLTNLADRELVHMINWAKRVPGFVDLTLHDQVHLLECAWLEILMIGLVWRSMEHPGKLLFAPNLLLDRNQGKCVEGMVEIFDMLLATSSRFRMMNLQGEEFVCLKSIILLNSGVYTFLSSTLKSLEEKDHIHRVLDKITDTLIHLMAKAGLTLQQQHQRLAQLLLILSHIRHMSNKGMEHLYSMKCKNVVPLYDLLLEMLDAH

Structure (SMILES) | ERα bioaffinity detected in HRS ERα FP trace [1] | Metabolism by rat liver microsomes [2]
C[C@H]1CCCC(=O)CCC/C=C/c2cc(O)cc(O)c2C(=O)O1 [zearalenone] | possible to detect the ERα bioaffinities | metabolized by rat liver microsomes into at least three major metabolites
O=c1oc2cc(O)ccc2cc1-c1ccc(O)cc1 [coumarol, 7-Hydroxy-3-p-hydroxyphenylcoumarine] | possible to detect the ERα bioaffinities | –
